Source: patent US20240165097A1, “PHARMACEUTICAL COMPOSITION FOR THE TREATMENT OF ALZHEIMER'S DISEASE OR DEMENTIA” (Heptares Therapeutics Limited, priority 2021, published 2024)
Where two headings read alike, the source gives them in different places.

Assay: Example C: HTL0018318 plasma and urine pharmacokinetics
Type: in vivo, human
Details: for CL renal / Cmax / AUC / AUC(0-inf) / half-life / Tmax: human, oral; for Cmax / AUC / AUC(0-inf) / half-life / Tmax: plasma; for AUC: Tau = 24 hrs, read-out: AUC0-tau (mean); for AUC(0-inf): read-out: AUC0-inf (mean)
Protocol: On the days between, only pre-dose PK samples were taken. The last PK blood sample was taken between 7-14 days after the last HTL0018318 dose (Table 7).
For these calculations, data of 15 mg and 25 mg HTL0018318 were grouped together. […]
All PK analyses were performed in Phoenix 64 build 6.4.0.768 using WinNonlin 6.4. Statistical analysis was performed in R version 3.3.1 (2016-06-21) Copyright (C) 2016 The R Foundation for Statistical Computing (Platform: x86_64-w64-mingw32/x64 64-bit).

[1] = fifth dose, 15 and 25 mg grouped
[2] = first dose, 15 and 25 mg grouped

CCOC(=O)N1C2CCC1CC(N1CCC3(CC1)CNC(=O)C3)C2 (stereo not drawn) [HTL0018318, ethyl 3-(3-oxo-2,8-diazaspiro[4.5]dec-8-yl)-8-azabicyclo[3.2.1]octane-8-carboxylate]
Ae (mean) (15 mg + DPZ, 1st dose): 39.9% | CL/F (mean) (15 mg + DPZ, 1st dose): 14.7 L/h | Ae (mean) (15 mg + DPZ, 5th dose): 51.5% | CL/F (mean) (15 mg + DPZ, 5th dose): 14.0 L/h | mean ratio AUC0-tau fifth dose / AUC0-inf first dose (15 mg alone): 1.04 | mean ratio AUC0-tau fifth dose / AUC0-tau first dose (15 mg alone): 1.27 | Ae (mean) (15 mg only, 1st dose): 39.2% | CL/F (mean) (15 mg only, 1st dose): 14.2 L/h | Ae (mean) (15 mg only, 5th dose): 47.9% | CL/F (mean) (15 mg only, 5th dose): 14.0 L/h | mean ratio AUC0-tau fifth dose / AUC0-inf first dose (15 mg, donepezil co-dosed): 1.04 | mean ratio AUC0-tau fifth dose / AUC0-tau first dose (15 mg, donepezil co-dosed): 1.23 | Ae (mean) (25 mg + DPZ, 1st dose): 41.1% | CL/F (mean) (25 mg + DPZ, 1st dose): 17.0 L/h | Ae (mean) (25 mg + DPZ, 5th dose): 47.7% | CL/F (mean) (25 mg + DPZ, 5th dose): 16.0 L/h | mean ratio AUC0-tau fifth dose / AUC0-inf first dose (25 mg alone): 1.06 | mean ratio AUC0-tau fifth dose / AUC0-tau first dose (25 mg alone): 1.23 | Ae (mean) (25 mg only, 1st dose): 32.6% | CL/F (mean) (25 mg only, 1st dose): 17.6 L/h | Ae (mean) (25 mg only, 5th dose): 44.1% | CL/F (mean) (25 mg only, 5th dose): 16.6 L/h | mean ratio AUC0-tau fifth dose / AUC0-inf first dose (25 mg, donepezil co-dosed): 1.03 | mean ratio AUC0-tau fifth dose / AUC0-tau first dose (25 mg, donepezil co-dosed): 1.21 | pharmacokinetic steady-state reached (daily dosing 15 or 25 mg): on or before the fifth daily dose | ratio of AUC0-tau, in combination with donepezil vs alone [1]: 1.00 | ratio of Cmax, in combination with donepezil vs alone [1]: 1.04 | ratio of Cmin, in combination with donepezil vs alone [1]: 0.911 | ratio of Tmax, in combination with donepezil vs alone [1]: 0.974 | ratio of AUC0-24, in combination with donepezil vs alone [2]: 1.02 | ratio of Cmax, in combination with donepezil vs alone [2]: 1.05 | ratio of Tmax, in combination with donepezil vs alone [2]: 1.01 | CL renal (plasma and urine, 25 mg + DPZ, 1st dose): 129 mL/min | CL renal (plasma and urine, 25 mg + DPZ, 5th dose): 113 mL/min | CL renal (plasma and urine, 25 mg, 25 mg only, 1st dose): 104 mL/min | CL renal (plasma and urine, 25 mg, 25 mg only, 5th dose): 109 mL/min | Cmax (15 mg + DPZ, 1st dose): 91.2 ng/mL | AUC (15 mg + DPZ, 1st dose): 932 ng·h/mL | AUC(0-inf) (15 mg + DPZ, 1st dose): 1120 ng·h/mL | half-life (15 mg + DPZ, 1st dose, read-out: Half-life (mean) (converted)): 8.97 h | Tmax (15 mg + DPZ, 1st dose, read-out: Tmax (median)): 2.5 h | Cmax (15 mg + DPZ, 5th dose): 109 ng/mL | AUC (15 mg + DPZ, 5th dose): 1150 ng·h/mL | half-life (15 mg + DPZ, 5th dose, read-out: Half-life (mean) (converted)): 11.6 h | Tmax (15 mg + DPZ, 5th dose, read-out: Tmax (median)): 1.74 h | Cmax (15 mg, 15 mg only, 1st dose): 83.4 ng/mL | AUC (15 mg, 15 mg only, 1st dose): 919 ng·h/mL | AUC(0-inf) (15 mg, 15 mg only, 1st dose): 1130 ng·h/mL | half-life (15 mg, 15 mg only, 1st dose, read-out: Half-life (mean) (converted)): 9.25 h | Tmax (15 mg, 15 mg only, 1st dose, read-out: Tmax (median)): 2 h | Cmax (15 mg, 15 mg only, 5th dose): 103 ng/mL | AUC (15 mg, 15 mg only, 5th dose): 1180 ng·h/mL | half-life (15 mg, 15 mg only, 5th dose, read-out: Half-life (mean) (converted)): 13.8 h | Tmax (15 mg, 15 mg only, 5th dose, read-out: Tmax (median)): 2.05 h | Cmax (25 mg + DPZ, 1st dose): 139 ng/mL | AUC (25 mg + DPZ, 1st dose): 1410 ng·h/mL | AUC(0-inf) (25 mg + DPZ, 1st dose): 1710 ng·h/mL | half-life (25 mg + DPZ, 1st dose, read-out: Half-life (mean) (converted)): 8.73 h | Tmax (25 mg + DPZ, 1st dose, read-out: Tmax (median)): 1.76 h | Cmax (25 mg + DPZ, 5th dose): 171 ng/mL | AUC (25 mg + DPZ, 5th dose): 1740 ng·h/mL | half-life (25 mg + DPZ, 5th dose, read-out: Half-life (mean) (converted)): 10.7 h | Tmax (25 mg + DPZ, 5th dose, read-out: Tmax (median)): 2 h | Cmax (25 mg, 25 mg only, 1st dose): 135 ng/mL | AUC (25 mg, 25 mg only, 1st dose): 1370 ng·h/mL | AUC(0-inf) (25 mg, 25 mg only, 1st dose): 1650 ng·h/mL | half-life (25 mg, 25 mg only, 1st dose, read-out: Half-life (mean) (converted)): 8.52 h | Tmax (25 mg, 25 mg only, 1st dose, read-out: Tmax (median)): 1.75 h | Cmax (25 mg, 25 mg only, 5th dose): 162 ng/mL | AUC (25 mg, 25 mg only, 5th dose): 1710 ng·h/mL | half-life (25 mg, 25 mg only, 5th dose, read-out: Half-life (mean) (converted)): 13.4 h | Tmax (25 mg, 25 mg only, 5th dose, read-out: Tmax (median)): 1.76 h | Tmax (25 mg, 15 and 25 mg, with and without donepezil, read-out: Tmax, range over groups): 1.74 to 2.5 h | half-life (25 mg, 15 and 25 mg, with and without donepezil, read-out: half-life following the fifth dose, range over groups): 10.7 to 13.8 h | CL renal (urine and plasma, 15 mg + DPZ, 1st dose): 109 mL/min | CL renal (urine and plasma, 15 mg + DPZ, 5th dose): 109 mL/min | CL renal (urine and plasma, 15 mg, 15 mg only, 1st dose): 109 mL/min | CL renal (urine and plasma, 15 mg, 15 mg only, 5th dose): 104 mL/min
